What was measured:
[1] = biological target: T1, endothelin A (ETA) receptor (Rattus norvegicus, UniProt P26684); experiment: Measurement of affinity for endothelin A (ETA) receptor: inhibition of 125I-labeled endothelin-1 binding to A7r5 cells; conditions: 125I-endothelin-1 8.3 pM, A7r5 cells derived from rat aorta, 37° C., 1 h
T1 construct: smooth muscle A7r5 cells derived from rat aorta; endogenous in cells; host or cells: A7r5 (rat aorta smooth muscle cells)
T1 sequence (P26684 21-426): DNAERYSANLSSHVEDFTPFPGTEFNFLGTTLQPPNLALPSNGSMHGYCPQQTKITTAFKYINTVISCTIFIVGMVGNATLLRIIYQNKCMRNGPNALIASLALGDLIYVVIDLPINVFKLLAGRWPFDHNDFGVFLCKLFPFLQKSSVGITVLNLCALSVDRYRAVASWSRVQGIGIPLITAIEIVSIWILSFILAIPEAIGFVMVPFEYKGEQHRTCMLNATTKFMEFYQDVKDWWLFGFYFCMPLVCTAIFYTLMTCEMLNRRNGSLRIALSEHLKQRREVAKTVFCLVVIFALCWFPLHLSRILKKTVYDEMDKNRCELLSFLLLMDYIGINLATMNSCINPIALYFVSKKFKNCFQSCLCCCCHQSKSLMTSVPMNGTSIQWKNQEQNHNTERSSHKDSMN
Description: Experiment 1 Measurement of affinity for endothelin A (ETA) receptor
Affinities for the ETA receptor were measured from the potency for inhibition of binding of ^125 I-labeled endotheline-1 to smooth muscle A7r5 cells derived from rat aorta. In brief, the cells cultured in 48-well plates were washed with buffer, and incubated in 0.3 ml of Hepes buffered Hanks' solution containing labeled endothelin-1 (8.3 pM) and various kinds of protease inhibitors in the presence or absence of the compound of the present invention at 37° C. for 1 h. The incubation was terminated by rapid removal of the incubation medium and the cells were washed with a HEPES buffered Hanks' solution. The radioactivity of ^125 I-labeled endothelin-1 bound to the cells was determined with a gamma-counter. The specific binding was calculated by subtracting the non-specific binding which was determined in the presence of 10^-7 M non radioactive endothelin-1 from the total binding.

[2] = biological target: T2, endothelin B (ETB) receptor (Sus scrofa, UniProt P35463); experiment: Measurement of affinity for endothelin B (ETB) receptor: inhibition of 125I-labeled endothelin-3 binding to COS-7 cells expressing pig ETB receptor; conditions: 125I-endothelin-3 25 pM, 37° C., 1 h
T2 construct: expressed in transfected cells; host or cells: COS-7
T2 sequence (P35463 27-443): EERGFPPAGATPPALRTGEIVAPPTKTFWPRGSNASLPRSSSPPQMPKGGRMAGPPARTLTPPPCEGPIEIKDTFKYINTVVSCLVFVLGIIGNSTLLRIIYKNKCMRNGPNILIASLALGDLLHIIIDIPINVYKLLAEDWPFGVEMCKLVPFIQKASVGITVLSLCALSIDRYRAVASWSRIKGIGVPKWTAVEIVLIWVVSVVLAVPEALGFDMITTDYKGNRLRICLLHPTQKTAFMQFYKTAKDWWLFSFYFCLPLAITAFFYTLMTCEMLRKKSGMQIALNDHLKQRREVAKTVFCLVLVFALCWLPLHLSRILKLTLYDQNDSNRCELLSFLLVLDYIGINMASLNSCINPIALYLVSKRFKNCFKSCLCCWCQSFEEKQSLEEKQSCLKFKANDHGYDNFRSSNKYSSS
Description: Experiment 2 Measurement of affinity for endothelin B (ETB) receptor
Affinities for the ETB receptor were measured from the potency for inhibiting ^125 I-labeled endothelin-3 binding to COS-7 cells expressing the pig endothelin ETB receptor. In brief, a plasmid vector to which the pig endothelin ETB receptor gene was inserted was transfected to COS-7 cells by the lipofectin method. After the cells were washed with buffer, 10^3 -10^4 cells were dispersed in HEPES buffered Hanks' solution (0.1 ml) containing 25 pM of 125I labeled endothelin-3 and various kinds of protease inhibitors and incubated in the presence or absence of the compound of the present invention at 37° C. for 1 h. After completion of the reaction, the radioactivity bound was trapped by a glass fiber filter and measured with a gamma counter. Specific binding was calculated by subtracting the non-specific binding measured in the presence of 10^-7 M non-radioactive endothelin-3 from the total binding.

foam cells = conditions: American Journal of Pathology vol. 146, No.4, 819-826 (1995); cited from earlier work
macrophage foam cell = experiment: Inhibition of macrophage foam cell formation in high-cholesterol-diet hamsters (aortic arch); type: in vivo, golden Syrian hamster; conditions: 6 weeks, 8 hamsters, p < 0.01 vs HCD group (HCD 25.7 ± 2.7)
Text: Experiment 3 Inhibition of macrophage foam cell formation
Male golden Syrian hamster of 12 weeks old, were used for the experiment. Hamsters were classified into a group wherein hamsters were fed with usual powder diet (OD group), a group wherein hamsters were fed with diet containing high cholesterol (2%) (HCD group) and a group wherein hamsters were fed with diet containing high cholesterol (2%) and the compound I-36 of the present invention (HCD +I-36 group) and animals in each group were fed for 6 weeks. The added amount of the compound 1-36 of the present invention was 0.01, 0.03 and 0.1% and they were equivalent to 6, 19, 66 mg/kg, respectively, calculated from food intake. Each group contains 8 hamsters.
After feeding for 6 weeks, hamsters were anesthetized with pentobarbital and subjected to thoracotomy to expose a heart. Arch of the aorta was removed after reperfusion with phosphate-buffered 10% formalin solution from the ventricle. The arch of the aorta was opened longitudinally and the number of foam cells in a microphotograph after staining with oil red O was counted with a colony counter to calculate the number per aortic arch area. The significant difference between the groups was examined by Dunnett's multiple comparison test.

[3] = Effect on peripheral circulatory insufficiency (tail blood flow after 3° C. immersion); type: in vivo, Wistar rats
Description: Experiment 4 Effect on peripheral circulatory insufficiency
Using Wistar rats, the peripheral circulatory insufficiency model was produced by immersing the rat tail tip (2-3 cm) in 1° C. water for 9 h, and experiments were performed at 3 weeks after above treatment. Tail blood flows in peripheral circulatory insufficiency rats were measured with laser-Doppler flowmetry with a tablet probe during immersing the whole tail in 3° C. water (30 min) The probe was held directly adjacent to the ventral surface of the tail, approximately 14 cm from the tip. To evaluate the effects of the compound of the present invention, peripheral circulatory insufficiency rats administered by the compound of the present invention (I-36, 30 mg/kg, po) at 2 h before 3° C. immersion.
In the normal Wistar rats, tail blood flow was transiently declined after 3° C. immersion, and gradually recovered up to about 70 % of basal level at 25 to 30 min after the immertion (normal rat). On the other hand, in the peripheral circulatory insufficiency rats, the tail blood flow measured immediately before administration of the compound of the present invention recovered to no more than 40% of basal level (peripheral circulatory insufficiency rat). […] Three days after administration of the compound of the present invention, when the circulatory effects of the compound was supposed to fully disappear, tail blood flows during 3° C. immersion were measured again. […] For statistic analysis, Dunnett's test was used.

Row | Structure (SMILES) | IC50 [1] | IC50 [2] | other results
1 | CC(C)Oc1ccc2c(c1)C(CC1CCCCC1)=C(C(=O)O)C(c1ccc3c(c1)OCO3)O2 (stereo not drawn) [Compound I-85] | 0.58 nM | 46 nM | –
2 | CCCOC1=C(C(=O)O)C(c2ccc3c(c2)OCO3)Oc2ccc(OC(C)C)cc21 (stereo not drawn) [Compound I-56] | 1.5 nM | 1300 nM | –
3 | Cc1noc(NS(=O)(=O)c2cccc3c(N(C)C)cccc23)c1C [BMS-182874] | – | – | number and size of foam cells (foam cells): reduce the number and size of foam cells
4 | CCCCCCOC1=C(C(=O)O)C(c2ccc3c(c2)OCO3)Oc2ccc(OC(C)C)cc21 (stereo not drawn) [Compound I-67] | 0.67 nM | 78 nM | –
5 | CCCCCC1=C(C(=O)O)C(c2ccc3c(c2)OCO3)Oc2ccc(OC(C)C)cc21 (stereo not drawn) [Compound I-77, 2-(Benzo[1,3]dioxol-5-yl)-6-isopropoxy-4-pentyl-2H-chromen-3-carboxylic acid] | 0.32 nM | 150 nM | –
6 | Cc1ccc(C2=C(C(=O)O)C(c3ccc4c(c3)OCO4)Oc3ccc(OC(C)C)cc32)s1 (stereo not drawn) [Compound I-80, 2-(Benzo[1,3]dioxol-5-yl)-6-isopropoxy-4-(5-methyl-thiophen-2-yl)-2H-chromen-3-carboxylic acid] | 1 nM | 1800 nM | –
7 | CC(C)Oc1ccc2c(c1)C(C1CCCC1)=C(C(=O)O)C(c1ccc3c(c1)OCO3)O2 (stereo not drawn) [Compound I-79, 2-(Benzo[1,3]dioxol-5-yl)-4-cyclopentyl-6-isopropoxy-2H-chromen-3-carboxylic acid] | 0.53 nM | 350 nM | –
8 | COCCCC1=C(C(=O)O)C(c2ccc3c(c2)OCO3)Oc2ccc(OC(C)C)cc21 (stereo not drawn) [Compound I-84] | 1.8 nM | 710 nM | –
9 | COC(CCCOC1=C(C(=O)O)C(c2ccc3c(c2)OCO3)Oc2ccc(OC(C)C)cc21)OC (stereo not drawn) [Compound I-70] | 1.2 nM | 270 nM | –
10 | CC(C)OC1=C(C(=O)O)C(c2ccc3c(c2)OCO3)Oc2ccc(OC(C)C)cc21 (stereo not drawn) [Compound I-59] | 0.81 nM | 730 nM | –

The remaining molecules from weak to strong by IC50 [1], led by results:

Row | IC50 [1] | IC50 [2] | Structure (SMILES) | other results
11 | 2.7 nM | 950 nM | C=CCCC1=C(C(=O)O)C(c2ccc3c(c2)OCO3)Oc2ccc(OC(C)C)cc21 (stereo not drawn) [Compound I-86] | –
12 | 2.3 nM | 1800 nM | CC(C)Oc1ccc2c(c1)C(CCCCO)=C(C(=O)O)C(c1ccc3c(c1)OCO3)O2 (stereo not drawn) [Compound I-87] | –
13 | 1.9 nM | 480 nM | CC(C)CCC1=C(C(=O)O)C(c2ccc3c(c2)OCO3)Oc2ccc(OC(C)C)cc21 (stereo not drawn) [Compound I-83] | –
14 | 0.95 nM | 880 nM | CC(C)Oc1ccc2c(c1)C(OCCCCCO)=C(C(=O)O)C(c1ccc3c(c1)OCO3)O2 (stereo not drawn) [Compound I-68] | –
15 | 0.89 nM | 180 nM | COc1ccc(C2=C(C(=O)O)C(c3ccc4c(c3)OCO4)Oc3ccc(OC(C)C)cc32)cc1 (stereo not drawn) [Compound I-36, 2-(Benz[1,3]dioxol-5-yl)-6-isopropoxy-4-(4-methoxy-phenyl)-2H-chromen-3-carboxylic acid] | Aortic foam cell numbers / mm^2 (Mean ± SE) (macrophage foam cell; HCD + 0.01% I-36 in diet (equivalent to 6 mg/kg)): 10.1 ± 1.7 / mm^2; Aortic foam cell numbers / mm^2 (Mean ± SE) (macrophage foam cell; HCD + 0.03% I-36 in diet (equivalent to 19 mg/kg)): 9.1 ± 0.8 / mm^2; Aortic foam cell numbers / mm^2 (Mean ± SE) (macrophage foam cell; HCD + 0.1% I-36 in diet (equivalent to 66 mg/kg)): 8.8 ± 1.1 / mm^2; skin blood flow (%), average from 20-25 min after cold exposure ([3]; insufficiency rat + I-36, 30 mg/kg, po, 2 h before 3° C. immersion, n = 4, p < 0.01 vs insufficiency rat control (37.20 ± 3.29)): 62.02 ± 1.23%; recovery of the tail blood flow ([3]; insufficiency rat + I-36, 30 mg/kg, po, in words): remarkable and significant; recovery of the blood flow after wash out ([3]; three days after administration of I-36, in words): same as that before administration; skin blood flow (%), average from 20-25 min after cold exposure ([3]; wash out: three days after administration of I-36, n = 4): 44.19 ± 5.83%
16 | 0.73 nM | 610 nM | CCCCC1=C(C(=O)O)C(c2ccc3c(c2)OCO3)Oc2ccc(OC(C)C)cc21 (stereo not drawn) [Compound I-76] | –
17 | 0.63 nM | 2500 nM | CC(C)Oc1ccc2c(c1)C(C(C)C)=C(C(=O)O)C(c1ccc3c(c1)OCO3)O2 (stereo not drawn) [Compound I-78] | –
18 | 0.62 nM | 69 nM | CCCCCCC1=C(C(=O)O)C(c2ccc3c(c2)OCO3)Oc2ccc(OC(C)C)cc21 (stereo not drawn) [Compound I-82] | –
19 | 0.5 nM | 85 nM | COc1ccc(CC2=C(C(=O)O)C(c3ccc4c(c3)OCO4)Oc3ccc(OC(C)C)cc32)cc1 (stereo not drawn) [Compound I-81, 2-(Benzo[1,3]dioxol-5-yl)-6-isopropoxy-4-(4-methoxy-benzyl)-2H-chromen-3-carboxylic acid] | –
20 | 0.48 nM | 150 nM | CCCCCOC1=C(C(=O)O)C(c2ccc3c(c2)OCO3)Oc2ccc(OC(C)C)cc21 (stereo not drawn) [Compound I-58] | –
21 | 0.41 nM | 780 nM | CCCCOC1=C(C(=O)O)C(c2ccc3c(c2)OCO3)Oc2ccc(OC(C)C)cc21 (stereo not drawn) [Compound I-57] | –
22 | 0.38 nM | 130 nM | C=CCCCOC1=C(C(=O)O)C(c2ccc3c(c2)OCO3)Oc2ccc(OC(C)C)cc21 (stereo not drawn) [Compound I-65, 2-(Benzo[1,3]dioxol-5-yl)-6-isopropoxy-4-(4-pentenyloxy-1-yl)-2H-chromen-3-carboxylic acid] | –
23 | 0.27 nM | 100 nM | CCCCSC1=C(C(=O)O)C(c2ccc3c(c2)OCO3)Oc2ccc(OC(C)C)cc21 (stereo not drawn) [Compound I-89, 2-(Benzo[1,3]dioxol-5-yl)-4-butylsulfanyl-6-isopropoxy-2H-chromen-3-carboxylic acid] | –
24 | 0.21 nM | 58 nM | COc1ccc(OC2=C(C(=O)O)C(c3ccc4c(c3)OCO4)Oc3ccc(OC(C)C)cc32)cc1 (stereo not drawn) [Compound I-74, 2-(Benzo[1,3]dioxol-5-yl)-6-isopropoxy-4-(4-methoxy-phenoxy)-2H-chromen-3-carboxylic acid] | –
